Measurements published in US7601745B2, “Heterocyclic NF-kB inhibitors” (4SC AG, priority 2004, dated 2009).

Test system: A549-NF-κB-SEAP reporter cells
Experiment: Inhibition of NF-κB-induced inflammation ([…] NINA Instant Assay, SEAP reporter)
Type: cell-based
Details: for Biological activity (NF-κB inflammation assay, inhibition): TNF-α stimulated reporter cells, test concentration not given
Text: For the determination of anti-inflammatory activity of the compounds the […]® NINA Instant Assay from Cell Culture Service GmBH was used. This assay is based on recombinant A549-NF-κB-SEAP reporter cells preseeded in 96-well flat bottom plates. As the transfected reportergen for SEAP (secreted embryonic alkaline phosphatase) is under transcriptional control of a NF-κB-responsive element, the expression of this reporter is activated upon stimulation with TNF-α. SEAP secretion into the culture supernatant can be detected by the chemiluminescent substrate CSPD®. Test compounds that inhibit the NF-κB activation show reduced SEAP activity and reduced luminescent readout.
Following 18 h of reactivation at 37° C., 5% CO2 and 90% relative humidity, the cells were incubated with 0.01 up to 100 μM of test compound for 4.5 h before stimulation with 2 ng/ml TNF-α. After stimulation with TNF-α for 22 h endogenous phosphatases were inactivated and CSPD® substrate was supplied for 40 min. SEAP activity then was quantified by measuring luminescence as relative light units (RLU) using a Tecan Ultra reader. Each data point was recorded in quadruplicates and EC50 values were calculated via fitting function and the Microsoft Excel Solver.

Row | Structure (SMILES) | Biological activity (NF-κB inflammation assay, inhibition) (compounds of formula (I)) | further results
1 | Cc1cc(NC(=O)N2CCC(c3nc(C(=O)N4CCN(c5cccc(C(F)(F)F)c5)CC4)cs3)CC2)c(C(F)(F)F)o1 [compound 76] | – | Biological activity (NF-κB inflammation assay, inhibition) (compounds of formula (Ia)): ++ (“++” means 80-90%)
2 | O=C(c1csc(C2CCN(S(=O)(=O)c3ccccc3Br)CC2)n1)N1CCN(c2cccc(C(F)(F)F)c2)CC1 [compound 196] | + (“+” stands for 50-80% inhibition) | –
3 | O=C(c1csc(C2CCN(c3ccc(C(F)(F)F)cc3)CC2)n1)N1CCN(c2cccc(C(F)(F)F)c2)CC1 [compound 155] | + (“+” stands for 50-80% inhibition) | –
4 | O=C(O)c1cccnc1C(=O)N1CCC(c2nc(C(=O)N3CCN(c4cccc(C(F)(F)F)c4)CC3)cs2)CC1 [compound 183] | + (“+” stands for 50-80% inhibition) | –
5 | O=C(O)N1CCC(c2nc(C(=O)N3CCN(c4cccc(C(F)(F)F)c4)CC3)cs2)CC1 [compound 113] | + (“+” stands for 50-80% inhibition) | –
6 | O=C(CCC1CCCC1)NCC1CCN(c2nc(C(=O)N3CCN(c4cccc(C(F)(F)F)c4)CC3)cs2)CC1 [compound 100] | – | Biological activity (NF-κB inflammation assay, inhibition) (compounds of formula (II)): + (“+” stands for 50-80% inhibition)
7 | O=C(c1csc(N2CCN(c3cccc(C(F)(F)F)c3)CC2)n1)N1CCN(c2cccc(C(F)(F)F)c2)CC1 [compound 67] | – | Biological activity (NF-κB inflammation assay, inhibition) (compounds of formula (II)): + (“+” stands for 50-80% inhibition)
8 | O=C(c1csc(C2CCN(Cc3ccccc3Br)CC2)n1)N1CCN(c2cccc(C(F)(F)F)c2)CC1 [compound 165] | + (“+” stands for 50-80% inhibition) | –
9 | N#Cc1ccc(C(=O)N2CCN(c3nc(C(=O)N4CCN(c5cccc(C(F)(F)F)c5)CC4)cs3)CC2)cc1 [compound 61] | – | Biological activity (NF-κB inflammation assay, inhibition) (compounds of formula (II)): +++ (“+++” stands for 90-100% inhibition)
10 | O=C(c1ccc(C(F)(F)F)c(F)c1)N1CCC(c2nc(C(=O)N3CCN(c4cccc(C(F)(F)F)c4)CC3)cs2)CC1 [compound 215] | +++ (“+++” stands for 90-100% inhibition) | –
11 | O=C(NCC1CCN(c2nc(C(=O)N3CCN(c4cccc(C(F)(F)F)c4)CC3)cs2)CC1)c1ccccc1OC(F)(F)F [compound 101] | – | Biological activity (NF-κB inflammation assay, inhibition) (compounds of formula (II)): + (“+” stands for 50-80% inhibition)
12 | Cn1nc(C(C)(C)C)cc1C(=O)N1CCC(c2nc(C(=O)N3CCN(c4cccc(C(F)(F)F)c4)CC3)cs2)CC1 [compound 216] | ++ (“++” means 80-90%) | –
13 | O=C(Cc1ccc(F)cc1)N1CCC(c2nc(C(=O)N3CCN(c4ccccn4)CC3)cs2)CC1 [compound 237] | + (“+” stands for 50-80% inhibition) | –
14 | O=C(Cc1ccc(F)cc1)N1CCC(c2nc(C(=O)N3CCN(c4cccc(Cl)c4)CC3)cs2)CC1 [compound 238] | + (“+” stands for 50-80% inhibition) | –
15 | O=C(c1csc(C2CCN(C(=O)c3ccccc3OC(F)(F)F)CC2)n1)N(CCc1ccccc1)Cc1ccccc1 [compound 149] | + (“+” stands for 50-80% inhibition) | –
16 | O=C(O)c1ccc(C(=O)O)c(C(=O)N2CCC(c3nc(C(=O)N4CCN(c5cccc(C(F)(F)F)c5)CC4)cs3)CC2)c1 [compound 184] | + (“+” stands for 50-80% inhibition) | –
17 | O=C(O)c1cccc(O)c1C(=O)N1CCC(c2nc(C(=O)N3CCN(c4cccc(C(F)(F)F)c4)CC3)cs2)CC1 [compound 186] | + (“+” stands for 50-80% inhibition) | –
18 | CN1CCOc2cc(C(=O)N3CCC(c4nc(C(=O)N5CCN(c6cccc(C(F)(F)F)c6)CC5)cs4)CC3)ccc21 [compound 210] | ++ (“++” means 80-90%) | –
19 | N#Cc1ccc(N2CCC(c3nc(C(=O)N4CCN(c5cccc(C(F)(F)F)c5)CC4)cs3)CC2)cc1 [compound 112] | + (“+” stands for 50-80% inhibition) | –
20 | O=C(c1csc(N2CCN(c3ccc(F)cc3)CC2)n1)N1CCN(c2cccc(C(F)(F)F)c2)CC1 [compound 69] | – | Biological activity (NF-κB inflammation assay, inhibition) (compounds of formula (II)): ++ (“++” means 80-90%)
21 | O=C(Cc1ccc(F)cc1)N1CCC(c2nc(C(=O)N3CCC(n4nnc5cc(C(F)(F)F)ccc54)CC3)cs2)CC1 [compound 181] | + (“+” stands for 50-80% inhibition) | –
22 | O=C(Cc1ccc(F)cc1)N1CCC(c2nc(C(=O)N3CCN(c4ccccc4)CC3)cs2)CC1 [compound 180] | + (“+” stands for 50-80% inhibition) | –

Row | Structure (SMILES) | Biological activity (NF-κB inflammation assay, inhibition) (compounds of formula (I)) | further results
23 | O=C(Nc1nc2ccccc2[nH]1)c1csc(NC(=O)c2ccccc2OC(F)(F)F)n1 [compound 31] | – | Biological activity (inhibition in the NF-κB inflammation assay): +++ (“+++” stands for 90-100% inhibition)
24 | CCCS(=O)(=O)c1ccc2[nH]c(NC(=O)c3csc(NC(=O)c4ccccc4OC(F)(F)F)n3)nc2c1 [compound 47] | – | Biological activity (inhibition in the NF-κB inflammation assay): +++ (“+++” stands for 90-100% inhibition)
25 | Cc1sc(C2CCN(C(=O)c3ccccc3OC(F)(F)F)CC2)nc1CC(=O)N1CCN(c2cccc(Cl)c2)CC1 [compound 128] | – | Biological activity (NF-κB inflammation assay, inhibition) (compounds of formula (Ib)): +++ (“+++” stands for 90-100% inhibition)
26 | NC(=Nc1nc2ccccc2[nH]1)NC(=O)c1csc(NC(=O)c2ccc(C(F)(F)F)cc2F)n1 [compound 53] | – | Biological activity (inhibition in the NF-κB inflammation assay): +++ (“+++” stands for 90-100% inhibition)
27 | COc1ccc(N2CCC(c3nc(C(=O)N4CCN(c5cccc(C(F)(F)F)c5)CC4)cs3)CC2)cc1OC [compound 159] | + (“+” stands for 50-80% inhibition) | –
28 | O=C(c1cccnc1)N1CCC(c2nc(C(=O)N3CCN(c4cccc(C(F)(F)F)c4)CC3)cs2)CC1 [compound 222] | + (“+” stands for 50-80% inhibition) | –
29 | O=C(c1csc(C2CCN(C(=O)c3ccccc3OC(F)(F)F)CC2)n1)N1CCC(n2nnc3ccccc32)CC1 [compound 111] | + (“+” stands for 50-80% inhibition) | –
30 | O=C(c1csc(C2CCN(S(=O)(=O)c3ccc(Cl)cc3Cl)CC2)n1)N1CCN(c2cccc(C(F)(F)F)c2)CC1 [compound 200] | + (“+” stands for 50-80% inhibition) | –
31 | O=C(c1csc(C2CCN(C(=O)c3ccccc3OC(F)(F)F)CC2)n1)N(CCO)Cc1ccccc1 [compound 148] | ++ (“++” means 80-90%) | –
32 | N=C(NC(=O)c1csc(N2CCOCC2)n1)Nc1nc2ccccc2[nH]1 [compound 91] | – | Biological activity (inhibition in the NF-κB inflammation assay): + (“+” stands for 50-80% inhibition)
33 | O=C(c1csc(C2CCN(S(=O)(=O)c3ccccc3)CC2)n1)N1CCN(c2cccc(C(F)(F)F)c2)CC1 [compound 208] | + (“+” stands for 50-80% inhibition) | –
34 | O=C(O)C1CCCCC1C(=O)N1CCC(c2nc(C(=O)N3CCN(c4cccc(C(F)(F)F)c4)CC3)cs2)CC1 (stereo not shown) [compound 189] | + (“+” stands for 50-80% inhibition) | –
35 | COc1nc(OC)nc(N2CCN(C(=O)c3csc(C4CCN(Cc5ccc(Br)cc5)CC4)n3)CC2)n1 [compound 121] | + (“+” stands for 50-80% inhibition) | –
36 | Cc1ccc(S(=O)(=O)N2CCC(c3nc(C(=O)N4CCN(c5cccc(C(F)(F)F)c5)CC4)cs3)CC2)cc1 [compound 204] | + (“+” stands for 50-80% inhibition) | –
37 | O=C(c1csc(C2CCN(CCC(c3ccccc3)c3ccccc3)CC2)n1)N1CCN(c2cccc(C(F)(F)F)c2)CC1 [compound 35] | +++ (“+++” stands for 90-100% inhibition) | –
38 | O=C(c1csc(C2CCN(Cc3ccccc3OC(F)(F)F)CC2)n1)N1CCN(c2cccc(C(F)(F)F)c2)CC1 [compound 109] | + (“+” stands for 50-80% inhibition) | –
39 | COc1ccccc1N1CCC(c2nc(C(=O)N3CCN(c4cccc(C(F)(F)F)c4)CC3)cs2)CC1 [compound 158] | + (“+” stands for 50-80% inhibition) | –
40 | O=C(c1csc(C2CCN(c3ccccc3)CC2)n1)N1CCN(c2cccc(C(F)(F)F)c2)CC1 [compound 119] | + (“+” stands for 50-80% inhibition) | –
41 | NC(=Nc1nc2ccccc2[nH]1)NC(=O)c1csc(NC(=O)c2ccc(C(F)(F)F)c(F)c2)n1 [compound 56] | – | Biological activity (inhibition in the NF-κB inflammation assay): +++ (“+++” stands for 90-100% inhibition)
42 | CC(C)NC(=O)N1CCC(c2nc(C(=O)N3CCN(c4cccc(C(F)(F)F)c4)CC3)cs2)CC1 [compound 78] | – | Biological activity (NF-κB inflammation assay, inhibition) (compounds of formula (Ia)): + (“+” stands for 50-80% inhibition)
43 | Cn1c(NC(=O)c2csc(NC(=O)c3ccccc3OC(F)(F)F)n2)nc2ccccc21 [compound 46] | – | Biological activity (inhibition in the NF-κB inflammation assay): +++ (“+++” stands for 90-100% inhibition)
